Holding throughout (format): biochemical
In one assay the target is ALK (Homo sapiens, UniProt Q9UM73). Kind of assay: ALK enzyme assay (HTRF). To be noted: 0.25 nM ALK, 15.0 μM ATP, values given as pIC50 category. How it is done:
The method measures the ability of the isolated enzyme to catalyse the transfer of the gamma-phosphate from ATP onto the tyrosine residue of a biotinylated synthetic peptide. The extent of tyrosine phosphorylation was measured using an anti-phosphotyrosine antibody, and quantified by homogenous time-resolved fluorescence (HTRF) assay purchased from CisBio (62TK0PEJ).
Reactions were performed in black 384-well polystyrene low volume plates in a final volume of 5 μl.
The reactions were then started by adding the substrate mix. The reactions were allowed to proceed for 120 minutes at 20° C. The reactions were then terminated by the addition of 5 μl HTRF detection mix to each well. The final concentrations of the detection reagents were: 50 mM HEPES (pH7.0); 0.1% BSA; 0.8 M KF; 20 mM EDTA; 1 mM CHAPS; TK-antibody Europium Cryptate; and 41 nM streptavidin-XL665. Assay plates were left unsealed, stacked and incubated at 20° for 60 minutes. Quantification of activity was achieved by counting in an Envision Counter (PerkinElmer).
Compounds under analysis were dissolved in Me2SO to 1.0 mM and serially diluted 1 to 3 with Me2SO through twelve dilutions. 0.05 μl of each concentration was transferred to the corresponding well of an assay plate. This creates a final compound concentration range from 0.00017 to 10 μM.
The data for dose responses were plotted as % Inhibition calculated with the data reduction formula 100*(1-(U1-C2)/(C1-C2)) versus concentration of compound where U is the unknown value, C1 is the average control value obtained for 1% DMSO, and C2 is the average control value obtained for 0.1 M EDTA. Data were fitted with a curve described by:
[formula] where A is the minimum y, B is the maximum y concentration [M], D is the slope factor, and x is the log10 of the compound.
Background: TR-FRET usually uses a lanthanide donor and a delayed reading to cut background.

A further assay has as its target T1, human IGF1R (hIGF1R) (Homo sapiens, UniProt P08069).
T1 construct: containing amino acid residues 957-1367 of human IGF1R; made in house; host or cells: Sf9 cells (baculovirus)
Put plainly: TR-FRET kinase assay of purified hIGF1R. To be noted: activated hIGF1R 0.5 nM, 10 μM ATP, values given as pIC50 category, read-out: IGF-1R pIC50 (converted). The method, then: (§1) Time Resolved Fluorescence Resonance Energy Transfer (TR-FRET) assays were carried out on the exemplified compounds as follows:
(§2) Purity is determined by HPLC. The calculated molecular mass of the peptide is 2216 dalton. Tyrosine phosphorylation by human IGF1R (hIGF1R) or human IR (hIR) occurs as indicated (Y*) in the peptide sequence described. Solid peptide sample is dissolved to approximately 1 mM in DMSO, aliquoted, and stored at −20° C. until use. True peptide concentration is determined by amino acid analysis.
hIGF1R: GST-rTEV-IGF-1R(957-1367) containing amino acid residues 957-1367 of human IGF1R (as annotated by National Center for Biotechnology Information (NCBI) accession number NP_000866) is purified from a baculovirus expression system in Sf9 cells using Glutathione Sepharose 4FF column chromatography followed by Sephadex-200 size exclusion column chromatography. […] Samples, in 25 mM Tris-HCl, 250 mM NaCl, 5% glycerol, 1 mM DTT, pH 7.5, are stored at −80° C. until use.
hIGF1R: Activation of GST-rTEV-IGF-1R(957-1367) is achieved by a 4 minute incubation of hIGF1R (2.7 μM final) with 2 mM ATP in 50 mM HEPES, 20 mM MgCL2, 0.1 mg/ml BSA, at room temperature. Autophosphorylation is stopped by addition of EDTA (to 100 mM final). Aliquoted samples are flash frozen in liquid nitrogen and stored at −80° C. until use.
(§3) Assays are performed in 384-well (Greiner, Catalog No. 784076) microtiter plates. Reaction buffer (50 mM HEPES buffer, pH 7.5; 10 mM MgCL2; 3 mM DTT; 1 mM CHAPS; 0.1 mg/ml BSA) for peptide phosphorylation (10 μl volume) contained, in final concentrations, 500 nM biotinylated peptide substrate; 10 μM ATP; and purified, activated hIGF1R or hIR (0.5 nM). Compounds, titrated in DMSO, are evaluated at eleven concentrations ranging from 50 μM to 0.2 nM. […] Reactions are incubated for 1 hour at room temperature and are stopped by a 5 μl addition of EDTA (to 33 mM). A further addition of 5 μl detection reagents (for final 7 nM Streptavidin-APC (Perkin Elmer #CR^130-150), 1 nM Europium-labeled anti-phosphotyrosine monoclonal antibody (PerkinElmer #AD0067), added in reaction buffer (without DTT), is required for signal generation. After 30 minutes, signal is read on PerkinElmer Viewlux microplate imager or Wallac Victor fluorometer.
(§4) The data for compound concentration responses were plotted as % Inhibition, calculated with the data reduction formula 100*(1-[(U1-C2)/(C1-C2)]), versus concentration of compound, where • U is the unknown value, • C1 is the average control value obtained for DMSO only, and • C2 is the average control value obtained for reactions stopped with EDTA at • t=0.
(§5) Data were fitted to the curve described by: y=((Vmax*x)/(K+x)) where • Vmax is the upper asymptote and • K is the IC50.

The target of another assay is T2, human IR (hIR) (Homo sapiens, UniProt P06213).
T2 construct: containing amino acid residues 979-1382 of human IR; made in house; host or cells: Sf9 cells (baculovirus), same process as hIGF1R
T2 sequence (P06213 979-1382): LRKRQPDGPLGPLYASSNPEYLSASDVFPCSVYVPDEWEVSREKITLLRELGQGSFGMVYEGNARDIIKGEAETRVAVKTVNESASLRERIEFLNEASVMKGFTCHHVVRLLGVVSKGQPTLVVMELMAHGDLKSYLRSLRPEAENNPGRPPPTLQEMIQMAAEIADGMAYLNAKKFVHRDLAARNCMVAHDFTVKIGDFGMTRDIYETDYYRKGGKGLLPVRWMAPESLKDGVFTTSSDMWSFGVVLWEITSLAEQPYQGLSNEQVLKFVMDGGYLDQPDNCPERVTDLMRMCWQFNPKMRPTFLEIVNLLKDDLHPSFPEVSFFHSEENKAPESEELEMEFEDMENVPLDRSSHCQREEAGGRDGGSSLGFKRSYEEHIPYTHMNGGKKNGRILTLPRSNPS
Put plainly: TR-FRET kinase assay of purified hIR. The following applies: activated hIR 0.5 nM, 10 μM ATP, values given as pIC50 category. How it is done: as §1, §2
hIR: GST-rTEV-IR(979-1382) containing amino acid residues 979-1382 of human IR (as annotated by NCBI accession number NP_000199) is expressed and purified by the same process as hIGF1R. […] Samples, in 25 mM Tris-HCl, 250 mM NaCl, 5% glycerol, 1 mM DTT, pH 7.5, are stored at −80° C. until use.
hIR: Activation of GST-rTEV-IGF-1R(957-1367) is achieved by a 5 minute incubation of hIR (2.7 μM final) with 2 mM ATP in 100 mM HEPES, 10 mM MgCL2, 0.1 mg/ml BSA, at room temperature. Autophosphorylation is stopped by addition of EDTA (to 100 mM final). Aliquoted samples are flash frozen in liquid nitrogen and stored at −80° C. until use.
as §3, §4, §5

pIC50: −log10 of the molar value. Several values for one entry are separate records, joined by “and”; a condition that tells them apart may be missing. Identical values can stand only once.

T1 sequence (P08069 957-1367): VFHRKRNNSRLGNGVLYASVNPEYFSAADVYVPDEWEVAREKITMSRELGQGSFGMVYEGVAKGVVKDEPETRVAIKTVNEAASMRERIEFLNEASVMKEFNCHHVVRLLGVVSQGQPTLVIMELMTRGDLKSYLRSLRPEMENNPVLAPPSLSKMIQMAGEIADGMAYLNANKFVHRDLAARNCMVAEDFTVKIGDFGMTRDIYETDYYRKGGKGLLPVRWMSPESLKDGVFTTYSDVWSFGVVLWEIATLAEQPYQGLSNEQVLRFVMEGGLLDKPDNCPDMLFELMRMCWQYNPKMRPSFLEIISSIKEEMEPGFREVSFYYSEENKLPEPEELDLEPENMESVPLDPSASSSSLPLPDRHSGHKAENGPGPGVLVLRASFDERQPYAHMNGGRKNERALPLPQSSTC
Chain of ALK (Q9UM73 19-1620): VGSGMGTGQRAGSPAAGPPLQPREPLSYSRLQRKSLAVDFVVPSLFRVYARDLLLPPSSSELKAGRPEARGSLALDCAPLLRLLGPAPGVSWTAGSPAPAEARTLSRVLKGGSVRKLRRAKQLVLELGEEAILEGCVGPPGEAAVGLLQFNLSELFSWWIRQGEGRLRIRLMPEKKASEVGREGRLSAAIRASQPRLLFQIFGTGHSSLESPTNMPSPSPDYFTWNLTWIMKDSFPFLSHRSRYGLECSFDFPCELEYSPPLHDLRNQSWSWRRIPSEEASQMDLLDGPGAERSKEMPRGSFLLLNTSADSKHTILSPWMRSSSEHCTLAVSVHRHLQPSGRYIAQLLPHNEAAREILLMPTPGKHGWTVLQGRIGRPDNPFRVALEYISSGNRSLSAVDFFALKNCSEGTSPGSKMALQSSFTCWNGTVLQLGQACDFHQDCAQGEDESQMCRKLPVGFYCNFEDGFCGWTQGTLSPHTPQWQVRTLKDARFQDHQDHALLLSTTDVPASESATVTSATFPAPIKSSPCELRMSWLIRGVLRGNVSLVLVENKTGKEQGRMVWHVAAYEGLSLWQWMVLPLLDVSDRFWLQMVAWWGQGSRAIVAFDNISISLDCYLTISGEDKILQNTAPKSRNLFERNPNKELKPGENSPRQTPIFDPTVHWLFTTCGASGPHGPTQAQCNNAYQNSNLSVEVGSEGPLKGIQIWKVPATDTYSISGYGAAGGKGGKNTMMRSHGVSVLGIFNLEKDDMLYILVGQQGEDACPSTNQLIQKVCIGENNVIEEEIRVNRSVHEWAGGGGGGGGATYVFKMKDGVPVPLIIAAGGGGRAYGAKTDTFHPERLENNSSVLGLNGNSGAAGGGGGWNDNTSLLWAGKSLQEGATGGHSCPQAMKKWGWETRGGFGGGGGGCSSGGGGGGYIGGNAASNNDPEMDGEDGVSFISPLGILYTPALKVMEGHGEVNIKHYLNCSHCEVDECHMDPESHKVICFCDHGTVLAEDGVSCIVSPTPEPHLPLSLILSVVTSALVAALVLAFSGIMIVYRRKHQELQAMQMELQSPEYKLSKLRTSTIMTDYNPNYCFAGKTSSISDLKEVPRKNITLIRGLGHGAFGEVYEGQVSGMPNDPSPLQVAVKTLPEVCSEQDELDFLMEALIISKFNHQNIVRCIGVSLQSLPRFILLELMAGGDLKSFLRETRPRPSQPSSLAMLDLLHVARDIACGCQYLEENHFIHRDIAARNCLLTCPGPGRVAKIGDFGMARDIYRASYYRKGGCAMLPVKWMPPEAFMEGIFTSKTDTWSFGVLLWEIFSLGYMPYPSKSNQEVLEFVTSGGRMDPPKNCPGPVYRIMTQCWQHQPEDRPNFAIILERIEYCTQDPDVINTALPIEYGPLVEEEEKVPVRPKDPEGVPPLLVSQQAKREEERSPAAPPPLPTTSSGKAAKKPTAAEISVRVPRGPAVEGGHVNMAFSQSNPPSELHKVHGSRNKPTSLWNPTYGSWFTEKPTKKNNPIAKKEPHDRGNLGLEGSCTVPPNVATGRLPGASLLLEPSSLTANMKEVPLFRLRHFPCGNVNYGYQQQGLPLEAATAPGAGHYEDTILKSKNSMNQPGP

Broadly, the pIC50 is −log10 of the IC50, conventionally taken in molar units. On to `COc1cc2c(cc1Nc1nc(Nc3cccc4c3C(=O)NC4)c3cc[nH]c3n1)N(C(=O)CN1CCCC1)CCC2` [Example 201, 7-[(2-{[6-(methyloxy)-1-(1-pyrrolidinylacetyl)-1,2,3,4-tetrahydro-7-quinolinyl]amino}-1H-pyrrolo[2,3-d]pyrimidin-4-yl)amino]-2,3-dihydro-1H-isoindol-1-one], for which the pIC50 on ALK and against human IR (hIR) was 9.00 to 9.60 throughout. The IC50 at human IGF1R (hIGF1R) was 0.251 to 1 nM.

Consider `CNC(=O)c1c(F)cccc1Nc1nc(Nc2cc3c(cc2OC)CCN(CCF)C3)nc2[nH]ccc12` [Example 234, 2-fluoro-6-[(2-{[2-(2-fluoroethyl)-6-(methyloxy)-1,2,3,4-tetrahydro-7-isoquinolinyl]amino}-1H-pyrrolo[2,3-d]pyrimidin-4-yl)amino]-N-methylbenzamide], for which the figures for the pIC50 at ALK and against human IR (hIR) were 9.00 to 9.60 and 8.40 to 8.90, respectively. For the same compound, on human IGF1R (hIGF1R), the IC50 is 5.01 to 200 nM.

For the compound `CNC(=O)c1c(F)cccc1Nc1nc(Nc2cc3c(cc2OC)CCN3C(=O)[C@@H]2CCCN2C)nc2[nH]ccc12` [Example 128, 2-fluoro-N-methyl-6-[(2-{[5-(methyloxy)-1-(1-methyl-L-prolyl)-2,3-dihydro-1H-indol-6-yl]amino}-1H-pyrrolo[2,3-d]pyrimidin-4-yl)amino]benzamide], the pIC50 on ALK was 6.70 to 8.30; at human IR (hIR) it was 6.80 to 8.30. Moreover, the IC50 on human IGF1R (hIGF1R) is 5.01 to 200 nM.

Regarding `CCOc1cc2c(cc1Nc1nc(Nc3cccc(F)c3C(=O)NC)c3cc[nH]c3n1)N(C(=O)CN(C)C)CCC2` [Example 133, 2-[(2-{[1-(N,N-dimethylglycyl)-6-(ethyloxy)-1,2,3,4-tetrahydro-7-quinolinyl]amino}-1H-pyrrolo[2,3-d]pyrimidin-4-yl)amino]-6-fluoro-N-methylbenzamide], the pIC50 at ALK and on human IR (hIR) was 8.40 to 8.90 in each case. In addition, the IC50 on human IGF1R (hIGF1R) is 1.26 to 3.98 nM.

Consider `COCCN(C)CC(=O)N1CCc2cc(OC)c(Nc3nc(Nc4cccc(F)c4C(N)=O)c4cc[nH]c4n3)cc21` [Example 170, 2-fluoro-6-[(2-{[1-{N-methyl-N-[2-(methyloxy)ethyl]glycyl}-5-(methyloxy)-2,3-dihydro-1H-indol-6-yl]amino}-1H-pyrrolo[2,3-d]pyrimidin-4-yl)amino]benzamide], for which the negative logarithm of the IC50 (pIC50) against ALK is 8.40 to 8.90; on human IR (hIR) it was 9.00 to 9.60. Also, at human IGF1R (hIGF1R), the IC50 was 0.251 to 1 nM.

Turning to `Cc1ccc(NC(=O)CN(C)C)cc1Nc1nc(Nc2ccc(Cl)cc2C(N)=O)c2cc[nH]c2n1` [Example 109, 5-chloro-2-{[2-({5-[(N,N-dimethylglycyl)amino]-2-methylphenyl}amino)-1H-pyrrolo[2,3-d]pyrimidin-4-yl]amino}benzamide], the pIC50 against ALK was 6.70 to 8.30; at human IR (hIR), 9.00 to 9.60. At human IGF1R (hIGF1R), the IC50 is 1.26 to 3.98 nM.

As to `CCCN1CCC=C(c2ccc(Nc3nc(Nc4cc(C)ccc4C(N)=O)c4cc[nH]c4n3)c(C)c2)C1` [Example 35, 4-methyl-2-[(2-{[2-methyl-4-(1-propyl-1,2,5,6-tetrahydro-3-pyridinyl)phenyl]amino}-1H-pyrrolo[2,3-d]pyrimidin-4-yl)amino]benzamide], the pIC50 against ALK is 6.70 to 8.30; against human IR (hIR), 6.80 to 8.30. At human IGF1R (hIGF1R), the IC50 is 5.01 to 200 nM.

On to `CNC(=O)c1c(F)cccc1Nc1nc(Nc2cc3c(cc2OC)CCN3C(=O)CN(C)CCOC)nc2[nH]ccc12` [Example 169, 2-fluoro-N-methyl-6-[(2-{[1-{N-methyl-N-[2-(methyloxy)ethyl]glycyl}-5-(methyloxy)-2,3-dihydro-1H-indol-6-yl]amino}-1H-pyrrolo[2,3-d]pyrimidin-4-yl)amino]benzamide], for which the pIC50 on ALK was 8.40 to 8.90 and 6.70 to 8.30; against human IR (hIR), 8.40 to 8.90. Also, the IC50 at human IGF1R (hIGF1R) was 1.26 to 3.98 nM.

As to `CCCN1CCC=C(c2ccc(Nc3nc(Nc4ccc(C)cc4C(N)=O)c4cc[nH]c4n3)c(C)c2)C1` [Example 32, 5-methyl-2-[(2-{[2-methyl-4-(1-propyl-1,2,5,6-tetrahydro-3-pyridinyl)phenyl]amino}-1H-pyrrolo[2,3-d]pyrimidin-4-yl)amino]benzamide], the negative-log IC50 (pIC50) at ALK and on human IR (hIR) was 8.40 to 8.90 each time. Moreover, the IC50 on human IGF1R (hIGF1R) is 1.26 to 3.98 nM.

The values above are taken from patent US7981903B2, “2-[2-{phenylamino}-1H-pyrrolo[2,3-D]pyrimidin-4-yl)amino] benzamide derivatives as IGF-1R inhibitors for the treatment of cancer” (GlaxoSmithKline LLC, priority 2007, dated 2011).
